Laboratory results: patent publication US20230391727A1, “ANALOGUES OF PENTAMIDINE AND METHODS FOR TREATING INFECTIONS” (Auransa Inc., priority 2020, published 2023)
Values after ≈ are worked out from the molar mass of the structure shown. Like-named read-outs stand apart in the source and are kept apart here. One block for each compound: values may come before it.

Tests used:
Assay type in all cases: cell-based
Candida albicans 43001 = assay: Anti-fungal MIC assay
Description: (§1) The first round of testing included Candida parapsilosis, Candida krusei, Paecilomyces variotii, Candida albicans, Aspergillus fumigatus, and Blastomyces dermatitidis. […] The second round of testing included Candida parapsilosis, Candida krusei, Candida albicans, Candida auris, Candida glabrata, Candida guilliermondii, and Cryptococcus neoformans.
(§2) Stock solutions of the investigational agent were prepared at concentrations 100-times the highest concentration to be tested (6400 μg/ml) using dimethyl sulfoxide. Aliquots of the stock solutions were dispensed into polystyrene vials and stored at −20° C.
(§3) The synthetic medium RPMI-1640 (with glutamine, without bicarbonate, and with phenol red) was used. The RPMI was buffered to a pH of 7.0+0.1 at 25° C. with 0.165M MOPS (3-[N-morpholino] propanesulfonic acid). Sterile U-shaped 96-well cell culture plates were used to perform the MIC assays. Dilutions of the DMSO stocks were prepared in RPMI to achieve 2× concentrations. After the dilutions of the working 2× investigational antifungal solutions were prepared, 0.1 ml of each concentration was transferred into a pre-specified column of the U-shaped 96-well cell culture plate using sterile pipettes.
(§4) Fungal isolates were grown on Sabouraud dextrose agar (yeasts) or potato flake agar (filamentous fungi) and cells were collected after an appropriate period of growth for each species being evaluated (e.g., 48-72 hours for yeasts and 7 days for filamentous fungi). The fungi were suspended in sterile distilled water, and the densities of the fungal suspension were read using a spectrophotometer and adjusted to an appropriate optical density specific for each fungal species. The fungal suspension of each isolate was then diluted in RPMI. A sufficient volume of the test inoculum was prepared to directly inoculate 0.1 ml into each test well of the 96-well cell culture plate. Final inoculum ranges were dependent on the fungal species to be tested (e.g., 0.4×103 to 5×10^3 cells/ml for yeasts and dimorphic fungi, and 0.4×104 to 5×10^4 cells/ml for filamentous fungi). Each well of the 96-well cell culture plate containing the investigational antifungal compounds (0.1 ml volume) was inoculated on the day of the assay with 0.1 ml of the fungal suspension. Growth control wells contained 0.1 ml of fungal suspension and 0.1 ml of the growth medium without antifungal agents. The media control well contained 0.2 ml of the growth medium.
(§5) The microdilution trays were incubated at 35° C. without agitation. […] One positive comparator/control was used for yeast (fluconazole) and one was used for filamentous fungi (voriconazole).

[1] = tested on: Candida albicans ATCC90028; assay: Anti-fungal MIC assay
Description: as §1, §2, §3, §4, §5

[2] = tested on: Candida guilliermondii Cgui2; assay: Anti-fungal MIC assay; conditions: Meyerozyma guilliermondii
Description: as §1, §2, §3, §4, §5

Candida albicans CA5 = assay: Anti-fungal MIC assay
Description: as §1, §2, §3, §4, §5

Candida glabrata CG3 = assay: Anti-fungal MIC assay; conditions: Nakaseomyces glabratus
Description: as §1, §2, §3, §4, §5

[3] = tested on: Candida parapsilosis ATCC22019; assay: Anti-fungal MIC assay; conditions: Lodderomyces parapsilosis
Description: as §1, §2, §3, §4, §5

Candida auris DI17-47 = assay: Anti-fungal MIC assay; conditions: Candidozyma auris
Description: as §1, §2, §3, §4, §5

[4] = tested on: Cryptococcus neoformans USC 1597; assay: Anti-fungal MIC assay
Description: as §1, §2, §3, §4, §5

[5] = tested on: Cryptococcus neoformans H99; assay: Anti-fungal MIC assay
Description: as §1, §2, §3, §4, §5

Candida auris DI17-46 = assay: Anti-fungal MIC assay; conditions: Candidozyma auris
Description: as §1, §2, §3, §4, §5

[6] = tested on: Candida guilliermondii Cgui3; assay: Anti-fungal MIC assay; conditions: Meyerozyma guilliermondii
Description: as §1, §2, §3, §4, §5

[7] = tested on: Candida guilliermondii Cgui1; assay: Anti-fungal MIC assay; conditions: Meyerozyma guilliermondii
Description: as §1, §2, §3, §4, §5

[8] = tested on: Paecilomyces variotii MYA-3630; assay: Anti-fungal MIC assay
Description: as §1, §2, §3, §4, §5

Candida parapsilosis CP1 = assay: Anti-fungal MIC assay
Description: as §1, §2, §3, §4, §5

Candida parapsilosis CP2 = assay: Anti-fungal MIC assay; conditions: Lodderomyces parapsilosis
Description: as §1, §2, §3, §4, §5

Candida auris DI17-48 = assay: Anti-fungal MIC assay; conditions: Candidozyma auris
Description: as §1, §2, §3, §4, §5

Candida glabrata 05-62 = assay: Anti-fungal MIC assay
Description: as §1, §2, §3, §4, §5

Candida albicans CA6 = assay: Anti-fungal MIC assay
Description: as §1, §2, §3, §4, §5

Candida krusei ATCC6258 = assay: Anti-fungal MIC assay; conditions: Pichia kudriavzevii, second round (Table 6)
Description: as §1, §2, §3, §4, §5

Candida albicans CA3 = assay: Anti-fungal MIC assay
Description: as §1, §2, §3, §4, §5

Candida glabrata 05-761 = assay: Anti-fungal MIC assay
Description: as §1, §2, §3, §4, §5

Candida albicans SC5314 = assay: Anti-fungal MIC assay
Description: as §1, §2, §3, §4, §5

Candida parapsilosis CP3 = assay: Anti-fungal MIC assay; conditions: Lodderomyces parapsilosis
Description: as §1, §2, §3, §4, §5

[9] = tested on: Cryptococcus neoformans CN3; assay: Anti-fungal MIC assay
Description: as §1, §2, §3, §4, §5

[10] = tested on: Staphylococcus aureus BAA-1556 (MRSA); assay: MIC assay against gram positive and antibiotic-resistant S. aureus; conditions: Staphylococcus aureus
Description: (§6) The MICs of vancomycin and linezolid were determined as quality controls and the MIC values of each strain met the acceptance criteria based on PDS historical reference data.
(§7) The direct colony suspension method was used to prepare inoculated broth. Isolated colonies were taken from an 18-24 h culture plate. Optical density measurements (OD620 nm) were used to estimate the bacterial density. The test article, compound 3, and reference control stock solutions were prepared in 100% DMSO as 50× stock solutions. The 50× stock solutions were diluted by 2-fold serial titrations with 100% DMSO for a total of 11 concentrations. A 4 μL aliquot of each dilution was added to 196 μL of cation-adjusted Mueller Hinton Broth II medium seeded with the organism in wells of a 96 well plate. The final vehicle concentration was two percent (2%) in all assay wells. The final bacterial count was 2 to 8×10^5 CFU/mL. The final compound 3 concentration range was 16 to 0.016 μg/mL. Each test substance dilution was evaluated in duplicate on one test occasion. Vehicle-control and reference controls were used as blank and positive controls, respectively. Plates were incubated at 35-37° C. for 18 h. The test plates were visually examined and each well was visually scored for growth or complete inhibition of growth. The MIC value was recorded.

[11] = tested on: Staphylococcus aureus ATCC 33591 (MRSA); assay: as above; conditions: Staphylococcus aureus
Description: as §6, §7

[12] = tested on: Staphylococcus aureus ATCC 19636; assay: as above; conditions: Staphylococcus aureus, ATCC19636
Description: as §6, §7

[13] = tested on: Staphylococcus aureus VRS-2 (VRSA); assay: as above; conditions: Staphylococcus aureus, VRSA
Description: as §6, §7

[14] = read-out: MIC, 50% growth inhibition
[15] = read-out: MIC, 100% growth inhibition

MIC (Candida albicans 43001; [14]): > 64 µg/mL
MIC (Candida albicans 43001; [15]): > 64 µg/mL
MIC [1, 14]: ≤ 0.125 µg/mL
MIC [1, 15]: > 64 µg/mL
MIC [2, 14]: 2 µg/mL (≈ 6.53 µM)
MIC [2, 15]: 4 µg/mL (≈ 13.1 µM)
MIC (Candida albicans CA5; [14]): 0.25 µg/mL (≈ 0.816 µM)
MIC (Candida albicans CA5; [15]): > 64 µg/mL
MIC (Candida glabrata CG3; [14]): 0.5 µg/mL (≈ 1.63 µM)
MIC (Candida glabrata CG3; [15]): 64 µg/mL (≈ 209 µM)
MIC ([3]; ATCC22019, C. parapsilosis ATCC 22019, second round (Table 6), read-out: MIC, 50% growth inhibition): 2 µg/mL (≈ 6.53 µM)
MIC ([3]; ATCC22019, Candida parapsilosis ATCC22019, first round (Table 5), read-out: MIC, 50% growth inhibition): 1 µg/mL (≈ 3.27 µM)
MIC ([3]; ATCC22019, read-out: MIC, 100% growth inhibition, C. parapsilosis ATCC 22019, second round (Table 6)): 2 µg/mL (≈ 6.53 µM)
MIC ([3]; ATCC22019, read-out: MIC, 100% growth inhibition, Candida parapsilosis ATCC22019, first round (Table 5)): 2 µg/mL (≈ 6.53 µM)
MIC (Candida auris DI17-47; DI1747, read-out: MIC, 50% growth inhibition): > 64 µg/mL
MIC (Candida auris DI17-47; DI1747, read-out: MIC, 100% growth inhibition): > 64 µg/mL
MIC ([4]; USC1597, read-out: MIC, 50% growth inhibition): 4 µg/mL (≈ 13.1 µM)
MIC ([4]; USC1597, read-out: MIC, 100% growth inhibition): 8 µg/mL (≈ 26.1 µM)
MIC [5, 14]: 16 µg/mL (≈ 52.2 µM)
MIC [5, 15]: 32 µg/mL (≈ 104 µM)
MIC (Candida auris DI17-46; DI1746, read-out: MIC, 50% growth inhibition): > 64 µg/mL
MIC (Candida auris DI17-46; DI1746, read-out: MIC, 100% growth inhibition): > 64 µg/mL
MIC [6, 14]: 2 µg/mL (≈ 6.53 µM)
MIC [6, 15]: 4 µg/mL (≈ 13.1 µM)
MIC [7, 14]: 1 µg/mL (≈ 3.27 µM)
MIC [7, 15]: 4 µg/mL (≈ 13.1 µM)
MIC ([8]; MYA3630, read-out: MIC, 50% growth inhibition): 16 µg/mL (≈ 52.2 µM)
MIC ([8]; MYA3630, read-out: MIC, 100% growth inhibition): 32 µg/mL (≈ 104 µM)
MIC (Candida parapsilosis CP1; [14]): 0.5 µg/mL (≈ 1.63 µM)
MIC (Candida parapsilosis CP1; [15]): 1 µg/mL (≈ 3.27 µM)
MIC (Candida parapsilosis CP2; [14]): 0.5 µg/mL (≈ 1.63 µM)
MIC (Candida parapsilosis CP2; [15]): 0.5 µg/mL (≈ 1.63 µM)
MIC (Candida auris DI17-48; DI1748, read-out: MIC, 50% growth inhibition): 2 µg/mL (≈ 6.53 µM)
MIC (Candida auris DI17-48; DI1748, read-out: MIC, 100% growth inhibition): 16 µg/mL (≈ 52.2 µM)
MIC (Candida glabrata 05-62; Nakaseomyces glabratus, 0562, read-out: MIC, 50% growth inhibition): > 64 µg/mL
MIC (Candida glabrata 05-62; Nakaseomyces glabratus, 0562, read-out: MIC, 100% growth inhibition): > 64 µg/mL
MIC (Candida albicans CA6; [14]): 0.25 µg/mL (≈ 0.816 µM)
MIC (Candida albicans CA6; [15]): > 64 µg/mL
MIC (Candida krusei ATCC6258; ATCC6258, C. krusei ATCC 6258, read-out: MIC, 50% growth inhibition): 16 µg/mL (≈ 52.2 µM)
MIC (Candida krusei ATCC6258; ATCC6258, read-out: MIC, 100% growth inhibition, C. krusei ATCC 6258): 32 µg/mL (≈ 104 µM)
MIC (Candida albicans CA3; [14]): > 64 µg/mL
MIC (Candida albicans CA3; [15]): > 64 µg/mL
MIC (Candida glabrata 05-761; Nakaseomyces glabratus, 05761, read-out: MIC, 50% growth inhibition): 8 µg/mL (≈ 26.1 µM)
MIC (Candida glabrata 05-761; Nakaseomyces glabratus, 05761, read-out: MIC, 100% growth inhibition): 32 µg/mL (≈ 104 µM)
MIC (Candida albicans SC5314; [14]): 0.25 µg/mL (≈ 0.816 µM)
MIC (Candida albicans SC5314; [15]): > 64 µg/mL
MIC (Candida parapsilosis CP3; [14]): 1 µg/mL (≈ 3.27 µM)
MIC (Candida parapsilosis CP3; [15]): 1 µg/mL (≈ 3.27 µM)
MIC [9, 14]: > 64 µg/mL
MIC [9, 15]: > 64 µg/mL
Structure (SMILES): OC(Cn1cncn1)(Cn1cncn1)c1ccc(F)cc1F [Fluconazole, reference compound]

Structure (SMILES): CN[C@H](CC(C)C)C(=O)N[C@H]1C(=O)N[C@@H](CC(N)=O)C(=O)N[C@H]2C(=O)N[C@H]3C(=O)N[C@H](C(=O)N[C@H](C(=O)O)c4cc(O)cc(O)c4-c4cc3ccc4O)[C@H](O)c3ccc(c(Cl)c3)Oc3cc2cc(c3O[C@@H]2O[C@H](CO)[C@@H](O)[C@H](O)[C@H]2O[C@H]2C[C@](C)(N)[C@H](O)[C@H](C)O2)Oc2ccc(cc2Cl)[C@H]1O [Vancomycin]
MIC [10]: 0.5 µg/mL (≈ 0.345 µM)
MIC [11]: 0.5 µg/mL (≈ 0.345 µM)
MIC [12]: 0.5 µg/mL (≈ 0.345 µM)
MIC [13]: > 64 µg/mL
